Reference: patent publication US9809621B2, “Stable peptide-based PACE4 inhibitors” (SOCPRA SCIENCES SANTÉ ET HUMAINES S.E.C., priority 2011, dated 2017)
Where “and” joins values, the source holds several entries; their conditions need not be identical. Equal values may be shown once. Read-outs that look alike come from different tables or passages of the source. Numbered stars: 1 amine (or outer) side, 2 acyl side, 3 side chain; on linkers, the order of the positions; unused ones are H or OH. Square brackets hold non-standard residues; d marks the D form. Peptide text beside a SMILES is read from it. * marks the point of attachment. X3 = CC(C)C[C@H](N[*:1])c1cn([C@@H](CC(C)C)C(=O)[*:2])nn1; X5 = CC(C)C/C(=C\C[C@H](CC(C)C)N[*:1])C(=O)[*:2]; NH(4-amidinobenzyl) = N=C(N)c1ccc(CN*)cc1; PEG8 = NCCOCCOCCOCCOCCOCCOCCOCCOCCC(=O)O; X1 = CC(C)CN(CC(=O)[*:2])N[*:1]; X4 = N=C(N)NCCCN(CC(N)=O)N*; Nle = CCCC[C@H](N)C(=O)O; X2 = N=C(N)NC/C=C/CN*

Legend:
LNCaP cells = settings: MTT
DU145 cells = settings: MTT; for Anti-proliferative activity in DU145 cells (in words): FIG. 1C, FIG. 7
furin = furin (Homo sapiens, UniProt P09958); test: Inhibition constant (Ki) for furin; format: biochemical; settings: read-out: Ki for furin
PACE4 = target: T1, PACE4 (Homo sapiens, UniProt P29122); test: Inhibition constant (Ki) for PACE4; format: biochemical
T1 sequence (P29122 150-969): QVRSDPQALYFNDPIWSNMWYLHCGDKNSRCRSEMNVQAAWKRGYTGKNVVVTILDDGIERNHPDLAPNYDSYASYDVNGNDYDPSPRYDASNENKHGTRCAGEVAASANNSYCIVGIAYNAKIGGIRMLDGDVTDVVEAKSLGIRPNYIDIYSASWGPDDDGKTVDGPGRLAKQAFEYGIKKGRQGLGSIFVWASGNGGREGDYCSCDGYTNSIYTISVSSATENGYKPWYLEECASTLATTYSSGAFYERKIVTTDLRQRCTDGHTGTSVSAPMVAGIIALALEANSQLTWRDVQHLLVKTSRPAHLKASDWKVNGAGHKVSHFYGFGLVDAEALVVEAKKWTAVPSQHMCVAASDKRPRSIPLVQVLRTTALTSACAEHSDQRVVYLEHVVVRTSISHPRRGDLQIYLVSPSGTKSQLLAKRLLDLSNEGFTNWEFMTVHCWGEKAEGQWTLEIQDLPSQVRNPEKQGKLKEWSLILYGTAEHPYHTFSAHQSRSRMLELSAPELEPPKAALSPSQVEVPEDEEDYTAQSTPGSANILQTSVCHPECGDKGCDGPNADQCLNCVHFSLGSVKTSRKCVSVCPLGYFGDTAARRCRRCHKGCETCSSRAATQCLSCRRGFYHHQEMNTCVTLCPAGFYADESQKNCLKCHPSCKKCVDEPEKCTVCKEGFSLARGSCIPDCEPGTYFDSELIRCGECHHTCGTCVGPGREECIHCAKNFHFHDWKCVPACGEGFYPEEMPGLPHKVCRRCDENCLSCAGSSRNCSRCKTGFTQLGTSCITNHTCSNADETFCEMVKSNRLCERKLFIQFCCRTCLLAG

[1] = Stability following incubation with DU145 cells; format: in vitro ADME, human; settings: human, DU145 cells, Table 1, read-out: Stability (% remaining after 48 h)
Protocol: (§1) Multiple multi-Leu variants described in Table 1 were tested for their stability following incubation with DU145 cells, wherein their cellular stability and plasmatic half-life was measured.
Consequently, the multi-Leu peptide was further modified by the addition of amino acid analogues and/or with pseudo peptide bounds which increase the protection of the modified peptides from peptidase and protease degradation. Gains in stability were also measured in vitro in tumoral prostatic human cells (DU145). Increase in stability of the variants was also measured in vivo (FIG. 4).

[2] = Plasmatic half-life / degradation by plasmatic protease; format: in vitro ADME; settings: plasma
Protocol: as §1
Stabilisation strategy for multi-Leu variants was also assessed in presence of plasmatic protease. 8 variants protected at their N-terminal leucines were tested in order to establish their level of degradation since it is expected that N-terminal degradation will occur in absence of any modifications other than acetylation. Variants tested with azaβ3-leucine at each individual position and “click” bonds between the different leucines of the N-terminal part of the variants were protected against degradation (see FIG. 3 for modifications).

LNCaP tumors = test: Intratumoral treatment of LNCaP tumors in immunosuppressed mice
[3] = Table 1, read-out: Ki for PACE4

Sequence of furin (P09958 108-794): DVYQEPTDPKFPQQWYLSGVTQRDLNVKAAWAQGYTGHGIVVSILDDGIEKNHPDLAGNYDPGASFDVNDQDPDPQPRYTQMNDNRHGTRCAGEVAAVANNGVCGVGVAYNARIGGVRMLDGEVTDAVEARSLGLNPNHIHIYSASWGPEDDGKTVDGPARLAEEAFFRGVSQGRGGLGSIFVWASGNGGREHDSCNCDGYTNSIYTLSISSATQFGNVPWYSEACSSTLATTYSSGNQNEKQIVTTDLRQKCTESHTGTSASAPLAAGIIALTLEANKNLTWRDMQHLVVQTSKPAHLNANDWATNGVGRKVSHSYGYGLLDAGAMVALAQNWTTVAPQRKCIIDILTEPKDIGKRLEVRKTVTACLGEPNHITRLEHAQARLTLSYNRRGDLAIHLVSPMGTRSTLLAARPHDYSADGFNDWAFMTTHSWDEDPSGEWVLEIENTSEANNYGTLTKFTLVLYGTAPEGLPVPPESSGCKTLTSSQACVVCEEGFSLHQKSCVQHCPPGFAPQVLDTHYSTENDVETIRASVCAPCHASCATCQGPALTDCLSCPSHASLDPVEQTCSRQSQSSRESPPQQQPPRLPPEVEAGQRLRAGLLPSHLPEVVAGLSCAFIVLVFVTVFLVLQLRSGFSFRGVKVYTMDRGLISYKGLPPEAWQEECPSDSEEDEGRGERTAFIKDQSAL

For `CC(=O)N[C@@H](CC(C)C)C(=O)N[C@@H](CC(C)C)C(=O)N[C@@H](CC(C)C)C(=O)N[C@@H](CC(C)C)C(=O)N[C@@H](CCCNC(=N)N)C(=O)N[C@H](C(=O)N[C@@H](CCCCN)C(=O)N[C@H](CCCNC(=N)N)C(N)=O)C(C)C` [Ac-LLLLRVK-[DArg]-NH2] (Ac-LLLLRVK[dR]-NH2), the “Anti-proliferative activity in LNCaP cells (in words)” value (LNCaP cells; FIG. 1D) was “poorly”, the IC50 (LNCaP cells; read-out: IC50 cellular proliferation LNCaP, FIG. 1B/1D) was 389000 ± 12000 nM and the “Anti-proliferative activity in DU145 cells (in words)” value (DU145 cells) was “poorly”. The IC50 (DU145 cells; read-out: IC50 cellular proliferation DU145, FIG. 1B/1C) was 439000 ± 82000 nM, the Ki (furin) was 2600 nM and the Ki (PACE4; read-out: Ki for PACE4) was 1380 nM.

`CCCC[C@H](NC(C)=O)C(=O)N[C@@H](CCCC)C(=O)N[C@@H](CC(C)C)C(=O)N[C@@H](CCCC)C(=O)N[C@@H](CCCN=C(N)N)C(=O)N[C@H](C(=O)N[C@@H](CCCCN)C(=O)N[C@@H](CCCN=C(N)N)C(N)=O)C(C)C` [ML[Nle]^P5-6-8, Ac-[Nle][Nle]L[Nle]RVKR-NH2] gave a remaining at 48 h [1] of 41% and a Ki (PACE4; Ki for PACE4, Table 1) of 85 nM.

In the case of `CC(=O)NN(CC(=O)N[C@@H](CC(C)C)C(=O)N[C@@H](CC(C)C)C(=O)N[C@@H](CC(C)C)C(=O)N[C@@H](CCCNC(=N)N)C(=O)N[C@H](C(=O)N[C@@H](CCCCN)C(=O)NC/C=C/CNC(=N)N)C(C)C)CC(C)C` [[Azaβ3L]^P8-ML-[ΔR-CO2]^P1, Ac-[Azaβ3L]LLLRVKR-[ΔR-COO]] (Ac-[X1]LLLRVK-X2), the half-life ([2]; Table 1) is reported as 5.67 ± 0.07 h, the half-life ([2]; Table 2) is reported as 5.67 ± 0.07 h and the “Anti-proliferative activity in DU145 cells (in words)” value (DU145 cells) is reported as “IC50 lower than the IC50 of the multi-Leu control”.

For `CC(=O)N[C@@H](CC(C)C)c1cn([C@@H](CC(C)C)C(=O)N[C@@H](CC(C)C)C(=O)N[C@@H](CC(C)C)C(=O)N[C@@H](CCCNC(=N)N)C(=O)N[C@H](C(=O)N[C@@H](CCCCN)C(=O)N[C@@H](CCCNC(=N)N)C(N)=O)C(C)C)nn1` [ML[click]^P8-P7, Ac-L[click]LLLRVKR-NH2] (Ac-[X3]LLRVKR-NH2), the half-life ([2]; Table 1) was 4 ± 0.5 h, the remaining at 48 h [1] was 52% and the Ki (PACE4; [3]) was 37 nM.

In the case of `CC(=O)N[C@@H](CC(C)C)C(=O)N[C@@H](CC(C)C)C(=O)N[C@@H](CC(C)C)C(=O)N[C@@H](CC(C)C)C(=O)N[C@@H](CCCNC(=N)N)C(=O)N[C@H](C(=O)N[C@@H](CCCCN)C(=O)NCc1ccc(C(=N)N)cc1)C(C)C` [ML-[AMBA]^P1, Ac-LLLLRVK-[AMBA]] (Ac-LLLLRVK-{NH(4-amidinobenzyl)}), the “Anti-proliferative activity in DU145 cells (in words)” value (DU145 cells) is reported as “IC50 lower than the IC50 of the multi-Leu control”.

Work on `CC(=O)N[C@@H](CC(C)C)C(=O)N[C@@H](CC(C)C)c1cn([C@@H](CC(C)C)C(=O)N[C@@H](CC(C)C)C(=O)N[C@@H](CCCNC(=N)N)C(=O)N[C@H](C(=O)N[C@@H](CCCCN)C(=O)N[C@@H](CCCNC(=N)N)C(N)=O)C(C)C)nn1` [ML[click]^P7-P6, Ac-LL[click]LLRVKR-NH2] (Ac-L[X3]LRVKR-NH2) yielded a half-life ([2]; Table 1) of 1 ± 0.2 h and a Ki (PACE4; [3]) of 600 nM.

For `CC(=O)N[C@@H](CC(C)C)C(=O)N[C@@H](CC(C)C)C(=O)N[C@@H](CC(C)C)C(=O)N[C@@H](CC(C)C)C(=O)N[C@@H](CCCNC(=N)N)C(=O)N[C@H](C(=O)N[C@@H](CCCCN)C(=O)NN(CCCNC(=N)N)CC(N)=O)C(C)C` [ML[Azaβ3R]^P1, Ac-LLLLRVK[Azaβ3R]-NH2] (Ac-LLLLRVK-X4), the half-life ([2]; Table 1) was 5.39 ± 0.08 h and the Ki (PACE4; [3]) was 460 nM.

In the case of `CCCC[C@H](NC(=O)[C@H](CC(C)C)NC(=O)[C@H](CC(C)C)NC(=O)[C@H](CC(C)C)NC(C)=O)C(=O)N[C@@H](CCCN=C(N)N)C(=O)N[C@H](C(=O)N[C@@H](CCCCN)C(=O)N[C@@H](CCCN=C(N)N)C(N)=O)C(C)C` [ML[Nle]^P5] (Ac-LLL[Nle]RVKR-NH2), the Ki (PACE4; [3]) is reported as 17 nM and 37 nM.

For `CC(=O)N[C@H](CC(C)C)C(=O)N[C@@H](CC(C)C)C(=O)N[C@@H](CC(C)C)C(=O)N[C@@H](CC(C)C)C(=O)N[C@@H](CCCNC(=N)N)C(=O)N[C@H](C(=O)N[C@@H](CCCCN)C(=O)NCc1ccc(C(=N)N)cc1)C(C)C` [[D-Leu]^P8-ML-[AMBA]^P1, Ac-[D-Leu]-LLLRVK-[AMBA]] (Ac-[dL]LLLRVK-{NH(4-amidinobenzyl)}), the half-life ([2]; Table 1) was 11.3 h, the half-life ([2]; Table 2) was 11.3 h and the “Plasmatic concentration of PSA (in words)” value (LNCaP tumors; LNCaP tumors, FIG. 9) was “decreased”. The “Appearance of excised tumors (in words)” value (LNCaP tumors; excised LNCaP tumors, FIG. 10A) was “smaller and have a white appearance”, the “Level of p27KIP in excised tumors (in words)” value (LNCaP tumors; immunocytochemistry, vs ML-peptide treated and untreated tumors, FIG. 10B) was “increased” and the “Level of Ki67 in excised tumors (in words)” value (LNCaP tumors; immunocytochemistry, vs ML-peptide treated and untreated tumors, FIG. 10C) was “decreased”. For the same molecule, the “Tumor volume (in words)” value (LNCaP tumors; intratumorally 50 μg/48 h, LNCaP tumors, immunosuppressed mice, FIG. 8) was “consistently the more potent compound”.

In the case of `CC(=O)N[C@H](C/C=C(\CC(C)C)C(=O)N[C@@H](CC(C)C)C(=O)N[C@@H](CC(C)C)C(=O)N[C@@H](CCCNC(=N)N)C(=O)N[C@H](C(=O)N[C@@H](CCCCN)C(=O)N[C@@H](CCCNC(=N)N)C(N)=O)C(C)C)CC(C)C` [ML[c-ene]^P8-P7, Ac-L═LLLRVKR-NH2] (Ac-[X5]LLRVKR-NH2), the half-life ([2]; Table 1) is reported as about 7.4 h.

“Ac-LLLSRVKR-NH2 [ML[Ser]-P5, Ac-LLLSRVKR-NH2]” showed a half-life ([2]; Table 1) of 2.32 ± 0.04 h, a remaining at 48 h [1] of 88% and a Ki (PACE4; Ki for PACE4, Table 1) of 11 nM.

In the case of `CC(=O)NCCOCCOCCOCCOCCOCCOCCOCCOCCC(=O)N[C@@H](CC(C)C)C(=O)N[C@@H](CC(C)C)C(=O)N[C@@H](CC(C)C)C(=O)N[C@@H](CC(C)C)C(=O)N[C@@H](CCCNC(=N)N)C(=O)N[C@H](C(=O)N[C@@H](CCCCN)C(=O)N[C@@H](CCCNC(=N)N)C(N)=O)C(C)C` [[H2N-PEG8]-ML, Ac-[HN-PEG8]-LLLLRVKR-NH2] (Ac-[PEG8]LLLLRVKR-NH2), the half-life ([2]; Table 1) is reported as 1.3 ± 0.2 h and the remaining at 48 h [1] is reported as 64%.

Molecule `CCCC[C@H](NC(C)=O)C(=O)N[C@@H](CCCC)C(=O)N[C@@H](CCCC)C(=O)N[C@@H](CCCC)C(=O)N[C@@H](CCCNC(=N)N)C(=O)N[C@H](C(=O)N[C@@H](CCCCN)C(N)=O)C(C)C` [ML[Nleu]^P5-6-7-8, Ac-[Nle][Nle][Nle][Nle]RVK-NH2] (Ac-[Nle][Nle][Nle][Nle]RVK-NH2) has a Ki (PACE4; Ki for PACE4, Table 1) of 344 nM.

`CC(=O)NN(CC(=O)N[C@@H](CC(C)C)C(=O)N[C@@H](CC(C)C)C(=O)N[C@@H](CC(C)C)C(=O)N[C@@H](CCCNC(=N)N)C(=O)N[C@H](C(=O)N[C@@H](CCCCN)C(=O)N[C@@H](CCCNC(=N)N)C(N)=O)C(C)C)CC(C)C` [ML[Azaβ3L]^P8] gave a half-life ([2]; Table 1) of 2.5 ± 0.1 h and a remaining at 48 h [1] of 83%.
